Key:
[1] = system: CH58TF infected primary CD4+ T-cells; test: Recognition of HIV-1 infected cells by 17b (flow cytometry cell-surface staining); assay type: cell-based; details: Human immunodeficiency virus 1, T-cell, read-out: Fold Over DMSO (17b, n = 1)
Procedure: Cell-surface staining of primary CD4+ T cells from healthy HIV uninfected individuals or CEM-NKr cells is performed, as described in Prevost, “Influence of the Envelope gp120 Phe 43 Cavity on HIV-1 Sensitivity to Antibody-Dependent Cell-Mediated Cytotoxicity Responses,” 2017, J. Virol 91; Richard, “CD4 mimetics sensitize HIV-1-infected cells to ADCC,” 2015, Proc. Natl. Acad. Sci. USA, 112:E2687-2694; Richard, “Small CD4 Mimetics Prevent HIV-1 Uninfected Bystander CD4+ T Cell Killing Mediated by Antibody-dependent Cell-mediated Cytotoxicity,” 2016, EBioMedicine 3:122-134; Veillette, “The HIV-1 gp120 CD4-Bound Conformation Is Preferentially Targeted by Antibody-Dependent Cellular Cytotoxicity-Mediating Antibodies in Sera from HIV-1-Infected Individuals,” 2015, J. Virol., 89:545-551; Veillette, “Interaction with cellular CD4 exposes HIV-1 envelope epitopes targeted by antibody-dependent cell-mediated cytotoxicity,” 2014, J. Virol., 88:2633-2644; Richard, “Uninfected Bystander Cells Impact the Measurement of HIV-Specific Antibody-Dependent Cellular Cytotoxicity Responses,” 2018, MBio. 9(2): e00358-18; Richard, “BST-2 Expression Modulates Small CD4-Mimetic Sensitization of HIV-1-Infected Cells to Antibody-Dependent Cellular Cytotoxicity,” 2017, J. Virol. 91(11):e00219-17. Binding of HIV-1 infected cells by HIV+ sera (1:1000 dilution) or anti-Env Abs (such as 17b) is performed […] in vitro infection at 37° C. in presence of different concentrations of the MCG analogs or with equivalent volume of vehicle (DMSO). Cells infected with HIV-1 primary isolates are stained intracellularly for HIV-1 p24 using the Cytofix/Cytoperm Fixation/Permeabilization Kit (BD Biosciences, Mississauga, ON, Canada) and then fluorescent anti-p24 mAb (PE-anti-p24, clone KC57; Beckman Coulter/Immunotech, Hialeah, FL) (1:100 final concentration). The percentage of infected cells (p24^+ or GFP+ cells) is determined by gating the living cell population based on the viability dye staining. Samples are analyzed on an LSRII cytometer (BD Biosciences, Mississauga, ON, Canada) and data analysis is performed using FlowJo vX0.7 (Tree Star, Ashland, OR, USA).
(§1) Briefly, Primary CD4 T cells isolated from PBMC were infected with HIV-1CH58TF for 48 hours. For cell surface staining, 5 μg/ml 17b (FIG. 15A) or 1:1000 diluted HIV+ plasma (n=15) (FIG. 15B) were used in the presence of the different MCG analogs (50 μM), (+)-BNM-III-170 or with an equivalent volume of vehicle (DMSO). An Alexa Fluor 647-conjugated anti-human IgG secondary Ab was then used for fluorescent labeling. For ADCC (FIG. 15C), infected cells were used as target cells in a FACS-based ADCC assay that measures the killing of infected (p24+ cells). See, Madani, 2016, J. Virol., 90:5031-5046. The assay determines susceptibility to ADCC mediated by a 1/1,000 dilution of plasma from 15 HIV-1-infected individuals in the presence of the different MCG analogs (50 μM), (+)-BNM-III-170 (50 μM) or with an equivalent volume of vehicle (DMSO). Correlation between cell-surface staining with HIV+ plasma and ADCC was calculated using the Spearman rank correlation (FIG. 15D).

[2] = system: CH58TF infected primary CD4+ T-cells; test: HIV+ patient sera/plasma recognition of CH58TF infected primary CD4+ T-cells (flow cytometry cell-surface staining); assay type: cell-based, HIV-1; details: Human immunodeficiency virus 1, T-cell, read-out: Fold Over DMSO (patient sera, n = 3)
Summary of the method: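 Primary CD4+ T cells from PBMC infected with HIV-1 CH58TF for 48 h, then surface-stained with 1:1000 HIV+ plasma or 5 μg/ml 17b plus 50 μM MCG analogs or DMSO; Alexa Fluor 647 anti-human IgG detection by flow cytometry, infected cells gated p24+. Values are fold change over DMSO.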

[3] = system: HIV-1JR-FL EnvΔCT expressed at the surface of HOS cells; test: Cell-based ELISA (CBE), 17b readout; details: MCG analogs 50 μM; BNM-III-170 5 μM; 2G12 and DMSO normalized
Summary of the method: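 HOS cells transiently expressing cytoplasmic-tail-truncated HIV-1JR-FL Env were treated 30 min at room temperature with compounds (50 μM), sCD4 ([…]) or DMSO, then 1 h with 17b antibody. Bound 17b was detected by HRP-conjugated anti-Fc chemiluminescence; values are fold over BNM-III-170 (5 μM), normalized to 2G12 and DMSO.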

Solubility in PBS = assay type: physicochemical; details: Yes/NO
[4] = system: primary CD4+ T cells infected with CH58 TF; test: FACS-based ADCC assay with patient sera/plasma; assay type: cell-based, HIV-1; details: Human immunodeficiency virus 1, CD4+ T, read-out: Fold over DMSO (% ADCC with ps, n = 3)
Procedure: Measurement of antibody or serum-mediated ADCC is performed with a FACS-based assay as described in Prevost, “Influence of the Envelope gp120 Phe 43 Cavity on HIV-1 Sensitivity to Antibody-Dependent Cell-Mediated Cytotoxicity Responses,” 2017, J. Virol 91; Richard, “CD4 mimetics sensitize HIV-1-infected cells to ADCC,” 2015, Proc. Natl. Acad. Sci. USA, 112:E2687-2694; Richard, “Small CD4 Mimetics Prevent HIV-1 Uninfected Bystander CD4+ T Cell Killing Mediated by Antibody-dependent Cell-mediated Cytotoxicity,” 2016, EBioMedicine 3:122-134; Veillette, “The HIV-1 gp120 CD4-Bound Conformation Is Preferentially Targeted by Antibody-Dependent Cellular Cytotoxicity-Mediating Antibodies in Sera from HIV-1-Infected Individuals,” 2015, J. Virol., 89:545-551; Veillette, “Interaction with cellular CD4 exposes HIV-1 envelope epitopes targeted by antibody-dependent cell-mediated cytotoxicity,” 2014, J. Virol., 88:2633-2644; Richard, “Uninfected Bystander Cells Impact the Measurement of HIV-Specific Antibody-Dependent Cellular Cytotoxicity Responses,” 2018, MBio. 9(2): e00358-18; Richard, “BST-2 Expression Modulates Small CD4-Mimetic Sensitization of HIV-1-Infected Cells to Antibody-Dependent Cellular Cytotoxicity,” 2017, J. Virol. 91(11):e00219-17. This assay specifically measures ADCC activity against productively infected cells and is not affected by the confounding effect of uninfected bystander cells. See, Richard, “Uninfected Bystander Cells Impact the Measurement of HIV-Specific Antibody-Dependent Cellular Cytotoxicity Responses,” 2018, MBio., 9(2): e00358-18.
Briefly, primary CD4+ T cells isolated from healthy HIV-1-negative individuals or CEM-NKr cells are infected with HIV viruses. Forty-eight hours post-infection, cells are incubated with autologous PBMC (effector:target cell ratio of 10:1) in the presence of 1:1000 HIV+ sera dilution or anti-Env Abs (5 μg/mL) alone or in combination with increasing concentration of MCG analogs. Infected cells are identified by intracellular staining for HIV-1 p24 or GFP expression (for GFP expressing infectious molecular clones) and the percentage of cytotoxicity is calculated the following formula as described.
For cells infected with HIV-1 primary isolates, infected cells are identified by intracellular staining for HIV-1 p24. In that context, the percentage of cytotoxicity is calculated with the following formula by gating infected lived target cells: […]
The ADCC susceptibility of primary CD4+ T cells infected with CH58 TF mediated by HIV+ plasma+/−MCG analogs also was evaluated using a FACS-based assay as previously reported. See, Ding, 2016, J Virol., 90:2127-2134; and Richard, 2018, MBio 9.
as §1

SMILES | fold induction at 50 µM [1] | fold induction at 50 µM [2] | Fold over BNM-III-170 - 17b binding (±0.05) [3] | Solubility (in PBS) (Solubility in PBS) | fold induction at 50 µM [4]
CS(=O)(=O)N1CC(C(=O)Nc2ccc(Cl)c(F)c2)Cc2ccccc21 (stereo not drawn) [MCG-III-214-A01] | 1.39 | 1.29 | 0.24 fold | Yes | 
CCS(=O)(=O)N1CCC[C@H](C(=O)Nc2ccc(F)c(F)c2)C1 [(S)-MCG-III-085-C04] | 3.95 | 1.68 | 0.26 fold | Yes | 
Cn1cnc(S(=O)(=O)N2CCNC(C(=O)Nc3ccc(Cl)c(F)c3)C2)c1 (stereo not drawn) [MCG-III-216-A04] | 1.24 | 0.845 | 0.10 fold | Yes | 
O=C(Nc1ccc(Cl)c(F)c1)C1CN(S(=O)(=O)c2ccccc2)CCN1 (stereo not drawn) [MCG-III-216-A03] | 1.47 | 1.05 | 0.11 fold | Yes | 
Cn1cnc(S(=O)(=O)N2CCN(C(=O)OC(C)(C)C)C(C(=O)Nc3ccc(Cl)c(F)c3)C2)c1 (stereo not drawn) [MCG-III-212-A04] | 1.04 | 0.924 | 0.06 fold | Yes | 
CS(=O)(=O)N1CCC[C@H](C(=O)Nc2ccc(Br)c(Cl)c2)C1 [(S)-MCG-III-085-A06] | 3.3 | 1.61 | 0.14 fold | Yes | 
CCS(=O)(=O)N1CCC[C@H](C(=O)Nc2ccc(F)c(Cl)c2)C1 [(S)-MCG-III-085-C02] | 2.15 | 1.19 | 0.20 fold | Yes | 
CS(=O)(=O)N1CCC[C@H](C(=O)Nc2ccc(F)c(Cl)c2)C1 [(S)-MCG-III-085-A02] | 2.15 | 1.13 | 0.22 fold | Yes | 
CS(=O)(=O)N1CCOC(C(=O)Nc2ccc(Cl)c(F)c2)C1 (stereo not drawn) [MCG-III-211-A01] | 2.63 | 1.47 | 0.28 fold | Yes | 
CS(=O)(=O)N1CCC[C@H](C(=O)Oc2ccc(Cl)c(F)c2)C1 [(S)-MCG-III-213-A01] | 1.08 | 1.08 | 0.07 fold | Yes | 
CCS(=O)(=O)N1CCC[C@H](C(=O)Nc2ccc(Cl)c(Br)c2)C1 [(S)-MCG-III-085-C05] | 1.77 | 1.04 | 0.26 fold | Yes | 
CCS(=O)(=O)N1CCC[C@H](C(=O)Oc2ccc(Cl)c(F)c2)C1 [(S)-MCG-III-213-A02] | 1.07 | 1.03 | 0.07 fold | Yes | 
O=C(Nc1ccc(Cl)c(F)c1)C1CNCCN1 (stereo not drawn) [MCG-III-216-A01] | 1.73 | 0.999 | 0.21 fold | Yes | 
CCS(=O)(=O)N1CCC[C@H](C(=O)Nc2ccc(Cl)c(Cl)c2)C1 [(S)-MCG-III-085-C03] | 3.83 | 1.65 | 0.25 fold | Yes | 
CS(=O)(=O)N1CCC[C@H](C(=O)Nc2ccc(C(F)(F)F)cc2)C1 [(S)-MCG-III-027-A04] | 1.07 | 1.4 | 0.17 fold | Yes | 
Cn1cnc(S(=O)(=O)N2CCOC(C(=O)Nc3ccc(Cl)c(F)c3)C2)c1 (stereo not drawn) [MCG-III-211-A04] | 3.61 | 1.63 | 0.35 fold | Yes | 
COc1ccccc1NC(=O)[C@H]1CCCN(S(C)(=O)=O)C1 [(S)-MCG-III-027-C05] | 1.5 | 1.76 |  | Yes | 0.46
Cn1cnc(S(=O)(=O)N2CCC[C@H](C(=O)Oc3ccc(Cl)c(F)c3)C2)c1 [(S)-MCG-III-213-A04] | 1.06 | 1.07 | 0.10 fold | Yes | 
